Experimental data taken from ChEMBL document CHEMBL2062432, “Design and synthesis of novel DFG-out RAF/vascular endothelial growth factor receptor 2 (VEGFR2) inhibitors: 2. Synthesis and characterization of a novel imide-type prodrug for improving oral absorption” (Bioorg Med Chem, 2012).
Blank lines part the entries; values can stand above or below the compound they belong to.

How the values were obtained:
[1] = Thermodynamic solubility of the compound in JP2 solution at pH 6.8 in presence of 20 mM bile acid; type: physicochemical; settings: JP2 solution with 20 mM bile acid, read-out: Therm_solubility
A-375 [2] = test: Antitumor activity against human A375 cells xenografted in athymic nude F344/N jcl-rnu/rnu […] assessed as tumor regression at 129 mg/kg, po administered BID for 2 weeks measured on day 14 relative to control; type: functional
Mus musculus [3] = test: AUC (0 to 24 hrs) in mouse assessed as 2-chloro-3-(1-cyanocyclopropyl)-N-[5-({2-[(cyclopropylcarbonyl) amino][1,3]thiazolo[5,4-b]pyridin-5-yl}oxy)-2-fluorophenyl] benzamide level at 32.3 mg/kg, po administered as single dose; type: ADME, organism-based, Plasma; set-up: time < 24 hr, dose 32.3 mg/kg, route oral; settings: in vivo
Mus musculus [4] = test: AUC (0 to 24 hrs) in mouse assessed as tert-butyl 5-(2-(cyclopropanecarboxamido)thiazolo[5,4-b]pyridin-5-yloxy)-2-fluorophenylcarbamate level at 32.3 mg/kg, po administered as single dose; type: ADME, organism-based, Plasma; set-up: time < 24 hr, dose 32.3 mg/kg, route oral; settings: in vivo
Mus musculus [5] = organism: Mus musculus; test: (§1) Ratio of AUC (0 to 24 hrs) in mouse assessed as 2-chloro-3-(1-cyanocyclopropyl)-N-[5-({2-[(cyclopropylcarbonyl) amino][1,3]thiazolo[5,4-b]pyridin-5-yl}oxy)-2-fluorophenyl] benzamide level to AUC (0 to 24hrs) in mouse assessed as tert-butyl 5-(2-(cyclopropanecarboxamido)thiazolo[5,4-b]pyridin-5-yloxy)-2-fluorophenylcarbamate level; type: ADME, organism-based; settings: in vivo
Rattus norvegicus [6] = test: AUC (0 to 24 hrs) in nude rat assessed as tert-butyl 2-chloro-3-(1-cyanocyclopropyl)benzoyl(5-(2-(cyclopropanecarboxamido)thiazolo[5,4-b]pyridin-5-yloxy)-2-fluorophenyl)carbamate level at 12.9 mg/kg, po administered as single dose; type: ADME, organism-based, Plasma; set-up: time < 24 hr, dose 12.9 mg/kg, route oral; settings: in vivo
Rattus norvegicus [7] = test: AUC (0 to 24 hrs) in nude rat assessed as 2-chloro-3-(1-cyanocyclopropyl)-N-[5-({2-[(cyclopropylcarbonyl) amino][1,3]thiazolo[5,4-b]pyridin-5-yl}oxy)-2-fluorophenyl] benzamide level at 12.9 mg/kg, po administered as single dose; type: ADME, organism-based, Plasma; set-up: time < 24 hr, dose 12.9 mg/kg, route oral; settings: in vivo
Rattus norvegicus [8] = test: AUC (0 to 24 hrs) in nude rat assessed as tert-butyl 5-(2-(cyclopropanecarboxamido)thiazolo[5,4-b]pyridin-5-yloxy)-2-fluorophenylcarbamate level at 12.9 mg/kg, po administered as single dose; type: ADME, organism-based, Plasma; set-up: time < 24 hr, dose 12.9 mg/kg, route oral; settings: in vivo
Rattus norvegicus [9] = test: (§2) Ratio of AUC (0 to 24 hrs) assessed as 2-chloro-3-(1-cyanocyclopropyl)-N-[5-({2-[(cyclopropylcarbonyl) amino][1,3]thiazolo[5,4-b]pyridin-5-yl}oxy)-2-fluorophenyl] benzamide level to AUC (0 to 24hrs) assessed as tert-butyl 5-(2-(cyclopropanecarboxamido)thiazolo[5,4-b]pyridin-5-yloxy)-2-fluorophenylcarbamate level in nude rat at 12.9 mg/kg, po; type: ADME, organism-based; set-up: dose 12.9 mg/kg, route oral; settings: in vivo
Rattus norvegicus [10] = test: AUC (0 to 24 hrs) in nude rat assessed as tert-butyl 2-chloro-3-(1-cyanocyclopropyl)benzoyl(5-(2-(cyclopropanecarboxamido)thiazolo[5,4-b]pyridin-5-yloxy)-2-fluorophenyl)carbamate level at 64.6 mg/kg, po administered as single dose; type: ADME, organism-based, Plasma; set-up: time < 24 hr, dose 64.6 mg/kg, route oral; settings: in vivo
Rattus norvegicus [11] = test: AUC (0 to 24 hrs) in nude rat assessed as 2-chloro-3-(1-cyanocyclopropyl)-N-[5-({2-[(cyclopropylcarbonyl) amino][1,3]thiazolo[5,4-b]pyridin-5-yl}oxy)-2-fluorophenyl] benzamide level at 64.6 mg/kg, po administered as single dose; type: ADME, organism-based, Plasma; set-up: time < 24 hr, dose 64.6 mg/kg, route oral; settings: in vivo
Rattus norvegicus [12] = test: AUC (0 to 24 hrs) in nude rat assessed as tert-butyl 5-(2-(cyclopropanecarboxamido)thiazolo[5,4-b]pyridin-5-yloxy)-2-fluorophenylcarbamate level at 64.6 mg/kg, po administered as single dose; type: ADME, organism-based, Plasma; set-up: time < 24 hr, dose 64.6 mg/kg, route oral; settings: in vivo
Rattus norvegicus [13] = test: as §2, with “64.6” for “12.9”; type: ADME, organism-based; set-up: dose 64.6 mg/kg, route oral; settings: in vivo
Canis familiaris [14] = test: AUC (0 to 24 hrs) in dog assessed as tert-butyl 2-chloro-3-(1-cyanocyclopropyl)benzoyl(5-(2-(cyclopropanecarboxamido)thiazolo[5,4-b]pyridin-5-yloxy)-2-fluorophenyl)carbamate level at 32.3 mg/kg, po administered as single dose; type: ADME, organism-based, Canis lupus familiaris, Plasma; set-up: time < 24 hr, dose 32.3 mg/kg, route oral; settings: in vivo
Canis familiaris [15] = test: AUC (0 to 24 hrs) in dog assessed as 2-chloro-3-(1-cyanocyclopropyl)-N-[5-({2-[(cyclopropylcarbonyl) amino][1,3]thiazolo[5,4-b]pyridin-5-yl}oxy)-2-fluorophenyl] benzamide level at 32.3 mg/kg, po administered as single dose; type: ADME, organism-based, Canis lupus familiaris, Plasma; set-up: time < 24 hr, dose 32.3 mg/kg, route oral; settings: in vivo
Canis familiaris [16] = test: AUC (0 to 24 hrs) in dog assessed as tert-butyl 5-(2-(cyclopropanecarboxamido)thiazolo[5,4-b]pyridin-5-yloxy)-2-fluorophenylcarbamate level at 32.3 mg/kg, po administered as single dose; type: ADME, organism-based, Canis lupus familiaris, Plasma; set-up: time < 24 hr, dose 32.3 mg/kg, route oral; settings: in vivo
Canis familiaris [17] = organism: Canis familiaris; test: as §1, with “dog” for “mouse”; type: ADME, organism-based, Canis lupus familiaris; settings: in vivo
Rhesus monkey [18] = test: AUC (0 to 24 hrs) in monkey assessed as tert-butyl 2-chloro-3-(1-cyanocyclopropyl)benzoyl(5-(2-(cyclopropanecarboxamido)thiazolo[5,4-b]pyridin-5-yloxy)-2-fluorophenyl)carbamate level at 32.3 mg/kg, po administered as single dose; type: ADME, organism-based, Macaca mulatta, Plasma; set-up: time < 24 hr, dose 32.3 mg/kg, route oral; settings: in vivo
Rhesus monkey [19] = test: AUC (0 to 24 hrs) in monkey assessed as 2-chloro-3-(1-cyanocyclopropyl)-N-[5-({2-[(cyclopropylcarbonyl) amino][1,3]thiazolo[5,4-b]pyridin-5-yl}oxy)-2-fluorophenyl] benzamide level at 32.3 mg/kg, po administered as single dose; type: ADME, organism-based, Macaca mulatta, Plasma; set-up: time < 24 hr, dose 32.3 mg/kg, route oral; settings: in vivo
Rhesus monkey [20] = test: AUC (0 to 24 hrs) in monkey assessed as tert-butyl 5-(2-(cyclopropanecarboxamido)thiazolo[5,4-b]pyridin-5-yloxy)-2-fluorophenylcarbamate level at 32.3 mg/kg, po administered as single dose; type: ADME, organism-based, Macaca mulatta, Plasma; set-up: time < 24 hr, dose 32.3 mg/kg, route oral; settings: in vivo
Rhesus monkey [21] = test: as §1, with “monkey” for “mouse”; type: ADME, organism-based, Macaca mulatta; settings: in vivo
Liver [22] = test: (§3) Ratio of prodrug conversion assessed a 2-chloro-3-(1-cyanocyclopropyl)-N-[5-({2-[(cyclopropylcarbonyl) amino][1,3]thiazolo[5,4-b]pyridin-5-yl}oxy)-2-fluorophenyl] benzamide level to drug metabolism assessed as tert-butyl 5-(2-(cyclopropanecarboxamido)thiazolo[5,4-b]pyridin-5-yloxy)-2-fluorophenylcarbamate level in mouse liver microsomes; type: ADME, Microsome
Liver microsomes [23] = test: as §3, with “rat” for “mouse”; type: ADME, Microsome
Liver [24] = test: Prodrug conversion in dog liver microsomes assessed as 2-chloro-3-(1-cyanocyclopropyl)-N-[5-({2-[(cyclopropylcarbonyl) amino][1,3]thiazolo[5,4-b]pyridin-5-yl}oxy)-2-fluorophenyl] benzamide level at 10 umol/L after 2 hrs; type: ADME, Canis lupus familiaris, Microsome; settings: 10 µM
Liver [25] = test: as §3, with “dog” for “mouse”; type: ADME, Canis lupus familiaris, Microsome
[26] = as §3, with “monkey” for “mouse”; type: ADME, Macaca mulatta, Microsome; settings: rhesus monkey
Liver microsomes [27] = test: as §3, with “human” for “mouse”; type: ADME, Microsome
Mus musculus [28] = test: Inhibition of VEGFR2-mediated ERK1/2 phosphorylation in human A375 cells xenografted athymic nude F344/N Jcl-rnu/rnu […] at 129 mg/kg, po administered as single dose after 4 hrs by immunoblotting relative to vehicle-treated control; values are per cent of control; settings: A-375, po
Mus musculus [29] = test: Inhibition of VEGFR2-mediated ERK1/2 phosphorylation in human A375 cells xenografted athymic nude F344/N Jcl-rnu/rnu […] at 12.9 mg/kg, po administered as single dose after 4 hrs by immunoblotting relative to vehicle-treated control; values are per cent of control; settings: A-375, po
Mus musculus [30] = test: Inhibition of VEGFR2-mediated ERK1/2 phosphorylation in human A375 cells xenografted athymic nude F344/N Jcl-rnu/rnu […] at 32.3 mg/kg, po administered as single dose after 4 hrs by immunoblotting relative to vehicle-treated control; values are per cent of control; settings: A-375, po
[31] = Metabolic stability in human liver microsomes assessed as compound remaining at 30 uM after 60 mins by HPLC analysis; type: ADME, Microsome; settings: read-out: Stability
Mus musculus [32] = test: Inhibition of […] ERK1/2 phosphorylation in human A375 cells xenografted po dosed athymic nude F344/N […] administered as single dose after 4 hrs by immunoblotting; type: functional, organism-based; settings: A-375
A-375 [33] = test: Antitumor activity against human A375 cells xenografted in athymic nude F344/N jcl-rnu/rnu […] assessed as tumor regression at >32.3 mg/kg, po administered BID for 2 weeks measured on day 14 relative to control; type: functional, organism-based
[34] = target: Serine/threonine-protein kinase B-raf (Homo sapiens, UniProt P15056, V600E); test: Inhibition of BRAF V600E mutant
Sequence of Serine/threonine-protein kinase B-raf (P15056 2-766 V600E limits assumed): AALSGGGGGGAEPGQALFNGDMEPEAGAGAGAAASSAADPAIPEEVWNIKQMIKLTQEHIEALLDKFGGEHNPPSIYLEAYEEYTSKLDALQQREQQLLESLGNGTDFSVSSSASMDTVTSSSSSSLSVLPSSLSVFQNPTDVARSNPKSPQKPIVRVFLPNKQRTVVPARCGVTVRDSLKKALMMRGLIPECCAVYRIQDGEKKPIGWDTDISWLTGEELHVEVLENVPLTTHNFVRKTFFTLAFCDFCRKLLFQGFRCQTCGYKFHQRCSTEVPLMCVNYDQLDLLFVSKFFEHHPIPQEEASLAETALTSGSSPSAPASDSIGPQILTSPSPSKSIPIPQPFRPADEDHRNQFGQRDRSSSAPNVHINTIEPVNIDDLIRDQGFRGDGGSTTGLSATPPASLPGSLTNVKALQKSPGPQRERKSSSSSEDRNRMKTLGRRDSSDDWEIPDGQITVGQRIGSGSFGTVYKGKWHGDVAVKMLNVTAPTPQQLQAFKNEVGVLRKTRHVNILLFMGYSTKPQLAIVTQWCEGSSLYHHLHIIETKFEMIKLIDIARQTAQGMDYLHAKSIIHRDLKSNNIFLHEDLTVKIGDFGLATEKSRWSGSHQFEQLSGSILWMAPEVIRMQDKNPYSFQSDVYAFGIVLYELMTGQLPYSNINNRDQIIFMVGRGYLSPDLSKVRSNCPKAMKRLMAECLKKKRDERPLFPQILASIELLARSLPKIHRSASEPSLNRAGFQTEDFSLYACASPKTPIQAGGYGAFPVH

SMILES: CC(=O)Nc1nc2ccc(Oc3ccc(F)c(NC(=O)c4cccc(C5(C#N)CC5)c4Cl)c3)nc2s1
- remaining at 1 h, 30 µM [31]: 78.5%

SMILES: CC(C)(C)OC(=O)N(C(=O)c1cccc(C2(C#N)CC2)c1Cl)c1cc(Oc2ccc3nc(NC(=O)C4CC4)sc3n2)ccc1F.CCO
- solubility thermodynamic [1]: 4.2 µg/mL

SMILES: CC(C)(C)OC(=O)N(C(=O)c1cccc(C2(C#N)CC2)c1Cl)c1cc(Oc2ccc3nc(NC(=O)C4CC4)sc3n2)ccc1F
- inhibition (Mus musculus [32]): Dose-dependent effect
- Activity (A-375 [33]): Dose-dependent effect

SMILES: N#CC1(c2cccc(C(=O)N(C(=O)C3CC3)c3cc(Oc4ccc5nc(NC(=O)C6CC6)sc5n4)ccc3F)c2Cl)CC1
- solubility thermodynamic [1]: 3.2 µg/mL

Second part, led by results:

- solubility thermodynamic [1]: 49 µg/mL
SMILES: CC(C)(C)OC(=O)N(C(=O)c1cccc(C2(C#N)CC2)c1Cl)c1cc(Oc2ccc3nc(NC(=O)C4CC4)sc3n2)ccc1F.O

- solubility thermodynamic [1]: 19 µg/mL
- AUC (Mus musculus [3]): 4900 ng·h/mL
- AUC (Mus musculus [4]): 500 ng·h/mL
- Ratio AUC (Mus musculus [5]): 9.8
- AUC (Rattus norvegicus [6]): 20 ng·h/mL
- AUC (Rattus norvegicus [7]): 1390 ng·h/mL
- AUC (Rattus norvegicus [8]): 570 ng·h/mL
- Ratio AUC (Rattus norvegicus [9]): 2.4
- AUC (Rattus norvegicus [10]): 80 ng·h/mL
- AUC (Rattus norvegicus [11]): 4280 ng·h/mL
- AUC (Rattus norvegicus [12]): 1800 ng·h/mL
- Ratio AUC (Rattus norvegicus [13]): 2.4
- AUC (Canis familiaris [14]): 530 ng·h/mL
- AUC (Canis familiaris [15]): 25330 ng·h/mL
- AUC (Canis familiaris [16]): 630 ng·h/mL
- Ratio AUC (Canis familiaris [17]): 40
- AUC (Rhesus monkey [18]): 530 ng·h/mL
- AUC (Rhesus monkey [19]): 9900 ng·h/mL
- AUC (Rhesus monkey [20]): 30 ng·h/mL
- Ratio AUC (Rhesus monkey [21]): 330
- Ratio (Liver [22]): 19
- Ratio (Liver microsomes [23]): 0.76
- Drug metabolism (Liver [24]): 2.3%
- Ratio (Liver [25]): 3.3
- Ratio [26]: 3
- Ratio (Liver microsomes [27]): 152
SMILES: CC(=O)O.CC(C)(C)OC(=O)N(C(=O)c1cccc(C2(C#N)CC2)c1Cl)c1cc(Oc2ccc3nc(NC(=O)C4CC4)sc3n2)ccc1F
- T/C (A-375 [2]): 6.4%
- level, % of control at 129 mg/kg (Mus musculus [28]): 20.1%
- level, % of control at 12.9 mg/kg (Mus musculus [29]): 52.7%
- level, % of control at 32.3 mg/kg (Mus musculus [30]): 34.1%

- remaining at 1 h, 30 µM [31]: 110%
- solubility thermodynamic [1]: 3.6 µg/mL
SMILES: N#CC1(c2cccc(C(=O)Nc3cc(Oc4ccc5nc(NC(=O)C6CC6)sc5n4)ccc3F)c2Cl)CC1

- IC50 [34]: 2000 nM
SMILES: CC(C)(C)OC(=O)Nc1cc(Oc2ccc3nc(NC(=O)C4CC4)sc3n2)ccc1F

- solubility thermodynamic [1]: 0.79 µg/mL
SMILES: CCOC(=O)N(C(=O)c1cccc(C2(C#N)CC2)c1Cl)c1cc(Oc2ccc3nc(NC(=O)C4CC4)sc3n2)ccc1F
